Values of other authors in patent publication US20050131071A1, “Orodispersible pharmaceutical composition of agomelatine” (priority 2003, published 2005).

Details: humans; oral route in relation to the parenteral route

SMILES: COc1ccc2cccc(CCNC(C)=O)c2c1 [agomelatine, N-[2-(7-methoxy-1-naphthyl)ethyl]acetamide]
- bioavailability by the oral route: very low
